Where a name gives a salt, the structure may show the parent alone.
Experiments:
[1] = tested on: duodenal epithelial mucosa tissue; test: Test Example 1: atrophy of duodenal epithelial mucosa caused by 48-hour fasting, PAS-stained tissue sections; format: in vivo, rat; details: for Density of secretion granules / Intercellular space / Size of cell / Size of nucleus: fasting rats, 48 hours
Method: Six-week-old male Sprague-Dawley rats (purchased from Nippon Charles River) were employed in the test. Water and solid feed (CRF-1, product of Oriental Yeast) were freely ingested by the rats. […] The test was carried out for 48 hours. For the fasting groups, solid feed was removed in the morning of the day on which the test was initiated. During the 48 hours, solid feed, water, and an ethanolamine hydrochloride-containing aqueous solution were freely ingested by the rats in the solid feed ingestion group, the water ingestion fasting group, and the ethanolamine hydrochloride ingestion fasting group, respectively. The amount of water ingested during the 48 hours was measured, and the amount of ingested ethanolamine per rat was calculated on the basis of the amount of water (Table 2). […] The small intestine was excised from each rat, and a duodenal portion (size: 1 cm in length) was removed from a position 5 cm in the direction of the anus away from the pylorus. The removed portion was fixed in phosphate buffered formalin. After 24-hour fixation, the duodenal portion was embedded in paraffin using a conventional technique, to thereby prepare a tissue section. The thus-prepared tissue sample was subjected to PAS staining, and then observed.

[2] = Test Example 1: body weight of fasting rats; format: in vivo, rat; details: 48 hours; for Weight ± standard deviation, Final: fasting rats, free ingestion
Method: Six-week-old male Sprague-Dawley rats (purchased from Nippon Charles River) were employed in the test. Water and solid feed (CRF-1, product of Oriental Yeast) were freely ingested by the rats. […] The test was carried out for 48 hours. For the fasting groups, solid feed was removed in the morning of the day on which the test was initiated. During the 48 hours, solid feed, water, and an ethanolamine hydrochloride-containing aqueous solution were freely ingested by the rats in the solid feed ingestion group, the water ingestion fasting group, and the ethanolamine hydrochloride ingestion fasting group, respectively. The amount of water ingested during the 48 hours was measured, and the amount of ingested ethanolamine per rat was calculated on the basis of the amount of water (Table 2). For each group, the rats were weighed at the time of test initiation and the time of test completion, in order to obtain the average weight (Table 1). In the fasting groups, any changes in the weight of the rats that could be attributed to ethanolamine ingestion were not observed.

[3] = tested on: villous epithelium of the duodenum; test: Test Example 2: duodenal disorder induced by four-day fasting and intraperitoneal 5% dextrose, HE-stained tissue sections; format: in vivo, rat; details: 250 mg/5 mL/kg orally twice a day, first to third fasting day, versus control group
Method: Nine-week-old CD (SD) IGS male rats were employed in the test. The rats were kept in individual fasting cages, and the day after initiation of fasting was regarded as the first fasting day. Fasting (i.e., provision of no food and no water) was carried out for four days, and on the fourth day the rats were sacrificed through […]. A 5% dextrose solution was intraperitoneally administered to each rat in an amount of 10 mL on the basis of body weight (100 g) from the first fasting day to the third fasting day, to thereby induce disorders. The rats were divided into two groups: a control group and a drug administration group. To the rats of the control group, sterile water was orally administered in an amount of 0.5 mL per 100 g of body weight twice a day, at 10:00 AM and 4:00 PM. To the rats of the drug administration group, ethanolamine hydrochloride was administered in an amount of 250 mg/5 mL/kg twice a day, at 10:00 AM and 4:00 PM. The administration was carried out from the first fasting day to the third fasting day. On the fourth fasting day, the rats were sacrificed through cervical dislocation, and the stomach and the duodenum were removed from each rat. The inside of the intestinal tract was washed with saline. Subsequently, the pylorus was ligated and the tract was also ligated at a position 4 cm from the pylorus. […]

[4] = tested on: primarily cultured liver cells; details: cited from earlier work
keratinocyte = details: cited from earlier work
[5] = 1 μM Etn in water (6 μg/kg/day)
[6] = 10 μM Etn in water (34 μg/kg/day)
[7] = 100 μM Etn in water (330 μg/kg/day)
[8] = 1000 μM Etn in water (4500 μg/kg/day)

## NCCO [ethanolamine hydrochloride]
[1]; 100 μM ingestion fasting group
  position of nuclei in cells: situated centrally
[1]; 100 μM ingestion fasting group, compared with solid feed ingestion group
  enlarged intercellular spaces and cell atrophy: not observed
[1]; 100 μM ingestion fasting group, compared with water and 1 or 10 μM fasting groups
  cell nuclei size: considerably enlarged
[1]; 100 μM ingestion fasting group, compared with water ingestion fasting group
  PAS staining of mucus-secreting granules in goblet cells: heavily stained
[1]; 1 or 10 μM ingestion fasting groups
  cell nuclei size: reduced in size
[1]; [5]
  Density of secretion granules: Low
  Intercellular space: Large
  Size of cell: Small
  Size of nucleus: Small
[1]; [6]
  Density of secretion granules: Low
  Intercellular space: Large
  Size of cell: Small
  Size of nucleus: Small
[1]; [7]
  Density of secretion granules: High
  Intercellular space: None
  Size of cell: Large
  Size of nucleus: Large
[1]; [8]
  Density of secretion granules: High
  Intercellular space: None
  Size of cell: Large
  Size of nucleus: Large
[1]; overall conclusion of Test Example 1
  prevention and treatment of atrophy of the small intestine caused by fasting: effective
[2]; 1 μM Etn in water
  Weight ± standard deviation, Final: 208.2 ± 3.1 g
[2]; 10 μM Etn in water
  Weight ± standard deviation, Final: 209.4 ± 7.4 g
[2]; 100 μM Etn in water
  Weight ± standard deviation, Final: 210.4 ± 3.9 g
[2]; 1000 μM Etn in water
  Weight ± standard deviation, Final: 213.1 ± 6.7 g

## NCCO [ethanolamine]
[2]; fasting groups
  changes in the weight of the rats that could be attributed to ethanolamine ingestion: not observed
[3]
  cellular infiltration: only slight
  necrosis of the villous epithelium: remarkably suppressed
[4]; in the presence of a cell growth factor such as EGF, ethanolamine 10-100 μM
  proliferation of liver cells: synergistically promoted
[4]; only ethanolamine added, no cell growth factor
  proliferation-promoting activity: not observed
keratinocyte
  proliferation of epithelial cells: promote proliferation

Source: patent publication US6337322B1, “Preventives and remedies for intestinal mucosal disorder” (Meiji Milk Products Co., Ltd., priority 1998, dated 2002)
